Holding throughout (format): cell-based, calf
In test [1] the test system is chondrocytes. In words: PDT-induced cytotoxicity (MTT cellular viability) in chondrocytes. The conditions noted are these: for toxic response / cellular viability (in words): 1, 5 or 10 J/cm^2 light; for decrease in cellular viability: BPD-MA concentrations exceeding 0.1 μg/ml, 690 nm, 72 hours after irradiation. The protocol:
(§1) Chondrocytes were harvested by established collagenase digestion techniques. Articular cartilage was aseptically dissected from the femoral condyles and patellas of calf knee joints. […] The resulting cell suspensions were filtered through a cell sieve and washed twice with serum free TCM. The cells were resuspended in the same medium containing 5% heat inactivated fetal calf serum (BioWhittaker, Walkerville, Md.) (FCS-TCM) for seeding. Cell number was determined using a hemocytometer. […] Cells were plated at a density of 1.5×10^6 cells/ml into Falcon 96 well cell culture plates (Becton Dickinson Labware, Franklin Lakes, N.J.) for the cytotoxicity and cell proliferation experiments and into Falcon 6 well cell culture plates for the Photosensitizer uptake studies. Chondrocyte cultures were maintained at 37° C. in a 5% CO2 incubator for 1 week prior to initiation of the photosensitization studies.
(§2) Photofrin® (PF) and Benzoporphyrin Derivative (BPD-MA) were obtained from Quadralogic Technologies (Vancouver, Canada). Chlorin e6 (Ce6) and chloroaluminum phthalocyanine (CASP) were obtained from Ciba Geigy (Basel, Switzerland) and Porphyrin Products (Logan, Utah), respectively. All photosensitizers were added to the chondrocytes in the dark 3 hours prior to light exposure. Photosensitizer stock solutions were prepared immediately prior to each experiment; serial dilutions were prepared using FCS-TCM. All irradiations were done at the appropriate excitation wavelengths for each photosensitizer (BPD-MA 690 nm; Ce6 658 nm; CASP 680 nm; PF 624 nm) using light provided by an argon ion pumped dye laser (Coherent, Palo Alto, Calif.). Following light exposure, control and irradiated cells were maintained for 72 hours prior to the assessment of cellular viability and proliferation rates. Cells were examined daily by light microscopy for morphologic changes.
Screening studies of toxicity determined the range of doses and light response for each photosensitizer. These predetermined ranges were used for all of the studies described. […] Dosages greater than 50 μg/ml were considered not clinically relevant and a dose range extending to 50 μg/ml was chosen for these studies.
PDT-induced cytotoxicity was determined 72 hours after irradiation. […] MTT is metabolized via mitochondrial dehydrogenase enzymes to a formazan dye which can be measured spectrophotometrically. Cytotoxicity is expressed as the percentage of formazan produced in cells treated with visible light of different wavelengths and intensities relative to control cells (% control). The data are expressed as the mean ±S.E.M. from triplicate experiments.

The next test deals with articular chondrocytes. In words: Photosensitizer uptake studies. Conditions: for IC50 Uptake: uptake at the IC50, 3 hours incubation in the dark. The protocol: as §1
(§3) Articular chondrocytes were maintained in primary culture for five days after plating. Photosensitizer stocks were serially diluted in FCS-TCM and added to triplicate wells. The cells were incubated in the dark for 3 hours. The photosensitizer-containing FCS-TCM was then removed and the cells were rinsed with 1 ml PBS. To digest the extracellular matrix, the cells were then immersed in 1 ml of a solution of 1 mg/ml collagenase and 0.1 mg/ml hyaluronidase in serum-free TCM. The resulting single cell suspensions were transferred to microfuge tubes and were centrifuged at 3.3×g for 5 minutes. The collagenase solution was removed and the cells were rinsed three times with calcium/magnesium-free PBS. Aliquots were taken for cell counting prior to cell lysis with 1 ml 0.1 N NaOH containing 1% SDS. Cell counting was performed by hemocytometer and Coulter counter. Fluorescent spectra of the cell lysates were obtained using a Spex FluoroMax spectrofluorometer (ISA Instruments, Edison, N.J.) at the appropriate excitation/emission wavelengths for each of the four photosensitizers studied. Fluorescence spectra were corrected for background fluorescence. Relative uptake values were obtained by regression analysis of standard curves of known photosensitizer concentrations. […] Values of uptake at the IC50 are shown in fg/cell. Average protein per cell was calculated from the cell counts and protein concentration determined by the Lowry protein assay.

The test system of test [2] is chondrocytes. In words: Cell proliferation ([^3 H]-thymidine incorporation) after PDT. Conditions: for effect on cellular proliferation rates (in words): [^3 H]-thymidine incorporation (FIG. 2); for IC50 (Table 2): concentration inhibiting [^3 H]-thymidine incorporation by 50%. The protocol:
as §1, §2
Cell proliferation was determined by [^3 H]-thymidine incorporation for all chondrocyte cultures 72 hours after drug and/or light exposure. The cell cultures were labeled with 5 μCi/ml [^3 H]-thymidine (35 Ci/mmol) (ICN, Irvine, Calif.) in FCS-TCM. After incubation for 20 hours, the radioactive medium was removed and the cells were rinsed three times with phosphate buffered saline (PBS) to remove unincorporated label. The cells were then lysed with buffer containing 150 mM Tris pH 8.0, 200 mM sodium chloride, 10% triton X-100 and 1% SDS. [^3 H]-thymidine incorporation was determined by liquid scintillation methods and the data are expressed as mean % control ±S.E.M. of samples irradiated without photosensitizer addition.
as §3, with “fg/cell.” for “fg/cell. Average protein per cell was calculated from the cell counts and protein concentration determined by the Lowry protein assay.”

Test [3] deals with chondrocytes. In words: Fluorescence of photosensitizers in chondrocytes (confocal microscopy).
The next test relates to MMP2. In words: Gelatin zymography, MMP2 after PDT. As for the experimental part: as §1, §2
Aliquots of conditioned medium were mixed with 1 ml of acetone and maintained at -20° C. for 16-20 hours. The aliquots were microcentrifuged at 14,000×g for 15 minutes, the supernatant was removed and the precipitated protein was dried in a vacuum concentrator (Savant, Farmingdale, N.Y.) to remove residual acetone. Conditioned medium samples were mixed with sample buffer (0.4 M Tris pH 6.8, 5% SDS, 20% glycerol, 0.003% bromophenol blue) and applied directly, without boiling or reduction, to 10% acrylamide gels containing 1% gelatin. […] The gels were stained for 1 hour at room temperature in 30% methanol/10% acetic acid containing 0.5% coomassie blue R-250 and destained in the same solution without dye. The gelatinolytic activity of the proteins was evidenced by clear bands against the blue background of the stained gelatin.

Setting [4] is: CASP parameters tested in zymography studies.

Bounds are passed on as bounds.

Consider `[Cl][Al]1[n]2c3c4ccccc4c2N=C2N=C(N=c4c5ccccc5c([n]41)=NC1=NC(=N3)c3ccccc31)c1ccccc12` [CASP, chloroaluminum phthalocyanine], for which the “toxic response / cellular viability (in words)” value with chondrocytes [1] was “minimally toxic to articular chondrocytes”. In addition, the “decrease in cellular viability by MTT production (in words)” value in the test with chondrocytes [1] (setting [4]) is “no decrease in cellular viability was observed”. The “saturation of toxicity effects (in words)” value in the test on chondrocytes [1] (in the range studied (FIG. 1D)) is given as “No saturation effects were observed”. Also, in the test with chondrocytes [1] (screening studies of toxicity to determine range of doses), the “dose response in screening studies of toxicity (in words)” value is “no dose response was seen”. In the test with articular chondrocytes, the “Photons Absorbed at IC50” value is 1.86 × 10^6 photons/cell and the “IC50 Uptake” value is 64.77 fg/cell. The “reduction of [^3 H]-thymidine incorporation” value in the test on chondrocytes [2] (50 μg/ml, highest concentration of CASP investigated) is given as 25%. In addition, the “decrease by [^3 H]-thymidine incorporation (in words)” value in the test on chondrocytes [2] (setting [4]) is on record as “no decrease in cellular viability was observed”. Also, in the test on chondrocytes [2], the “effect on cellular proliferation rates (in words)” value was “least toxic” and the “IC50 (Table 2)” value was greater than 50 µg/mL. The “cellular fluorescence intensity (in words)” value with chondrocytes [3] is on record as “Minimal CASP fluorescence was observed at the drug concentrations studied”. Besides, in the test with MMP2 (3.12 μg/ml, light dose of 10 J/cm^2, no decrease in cell viability), the “reduction in MMP2 levels (in words)” value is recorded as “complete reduction in MMP2 levels”. In addition, in the test on MMP2 (CASP parameters tested), the “reductions in MMP2 levels (in words)” value was “significant reductions in MMP2 levels”. Further, in the test on MMP2 (drug concentrations greater than 0.2 μg/ml, light dose of 10 J/cm^2), the “decrease of MMP2 levels” value was found to be 25%.

As to Benzoporphyrin Derivative [BPD-MA], in the test on chondrocytes [1], the “toxic response / cellular viability (in words)” value is listed as “most toxic responses in chondrocyte cultures”. Moreover, the “decrease in cellular viability” value with chondrocytes [1] (1 J/cm^2 light) stood at 60%. For the same molecule, in the test with chondrocytes [1] (5 or 10 J/cm^2 light), the “decrease in cellular viability” value amounted to 80%. Also, in the test on articular chondrocytes, the “Photons Absorbed at IC50” value is given as 5.86 × 10^6 photons/cell and the “IC50 Uptake” value came to 1.02 fg/cell. In addition, the “relative uptake (in words)” value in the test on articular chondrocytes (at the IC50 concentrations, 3 hour incubation) is on record as “lowest relative uptake”. The “IC50, inhibition of chondrocyte proliferation ([^3 H]-thymidine incorporation)” value in the test on chondrocytes [2] (72 hours after drug and/or light exposure, light dose not given) was found to be 0.0503 µg/mL. Also, in the test on chondrocytes [2], the “effect on cellular proliferation rates (in words)” value is “most toxic effects” and the “IC50 (Table 2)” value was determined as 0.05 µg/mL. Besides, in the test on chondrocytes [3], the “cellular fluorescence intensity (in words)” value is “strongest fluorescence signals”; the “fluorescence/uptake in differentiated vs dedifferentiated chondrocytes (in words)” value is “Fluorescence occurred uniformly in both differentiated and dedifferentiated chondrocytes”; the “subcellular fluorescence distribution (in words)” value is “diffuse cytoplasmic fluorescence for all drug concentrations studied. No nuclear or membrane staining was observed”. In the test on MMP2 (at a highly toxic dose), the “MMP2 production (in words)” value is on record as “non-detectable”. In the test with MMP2 (at the IC50 dose), the “reduction of MMP2 production” value is on record as “approximately 50%”. For the same molecule, the “MMP2 production (in words)” value with MMP2 (dependence on cell killing) is “MMP2 production decreased as a function of cell killing”.

The values above are taken from patent US5942534A, “Photodynamic therapy for the treatment of osteoarthritis” (The General Hospital Corporation, priority 1997, dated 1999).
